Data: PMC6270516 (Molecules, 2013)
Values after ≈ are worked out from the molar mass of the structure shown.

Legend:
physchem [1] = conditions: fassgf or other biorelevant
physchem [2] = conditions: simulated gastric fluid

With `CC(C)CCn1c2c(c3ccccc31)CCN1C(=O)c3ccccc3N(C)C21` (centres unmarked) [2-8, N13-Isopentylevodiamine] the solubility (physchem [1]) was > 373 µg/mL, the melting point was 108 to 110 °C and the solubility (physchem [2]) was > 150 µg/mL.

For `CC(C)Cn1c2c(c3ccccc31)CCN1C(=O)c3ccccc3N(C)C21` (centres unmarked) [2-7, N13-Isobutylevodiamine], the solubility (physchem [1]) was > 310 µg/mL, the melting point was 154 to 156 °C and the solubility (physchem [2]) was > 110 µg/mL.

`CCCCCCCCn1c2c(c3ccccc31)CCN1C(=O)c3ccccc3N(C)C21` (centres unmarked) [2-5, N13-Octylevodiamine] gave a solubility (physchem [1]) of 72.3 µg/mL (≈ 174 µM), a melting point of 65 to 67 °C and a solubility (physchem [2]) of 30 µg/mL (≈ 72.2 µM).

For `CCOC(=O)CCCn1c2c(c3ccccc31)CCN1C(=O)c3ccccc3N(C)C21` (centres unmarked) [2-23, N13-(3-(Ethoxycarbonyl)propyl)evodiamine], the solubility (physchem [1]) was 71.9 µg/mL (≈ 172 µM), the melting point was 265 to 268 °C and the solubility (physchem [2]) was 30 µg/mL (≈ 71.9 µM).

For `CN1c2ccccc2C(=O)N2CCc3c(n(CCO)c4ccccc34)C21` (centres unmarked) [4-1, N13-(2-Hyroxyethyl)evodiamine], the solubility (physchem [1]) was 320 µg/mL (≈ 921 µM), the melting point was 166 to 168 °C and the solubility (physchem [2]) was > 220 µg/mL.

Work on `CC(C)=CCn1c2c(c3ccccc31)CCN1C(=O)c3ccccc3N(C)C21` (centres unmarked) [2-4, N13-(3-Methyl-2-butenyl)evodiamine] yielded a solubility (physchem [1]) of 162 µg/mL (≈ 436 µM) and a solubility (physchem [2]) of 60 µg/mL (≈ 162 µM).

Work on `COCCn1c2c(c3ccccc31)CCN1C(=O)c3ccccc3N(C)C21` (centres unmarked) [2-14, N13-(2-Methoxyethyl)evodiamine] yielded a solubility (physchem [1]) of 41.6 to 83.1 µg/mL (≈ 115 to 230 µM), a melting point of 166 to 168 °C and a solubility (physchem [2]) of 15 to 30 µg/mL (≈ 41.5 to 83 µM).

For `CN1c2ccccc2C(=O)N2CCc3c(n(CCCC(=O)O)c4ccccc34)C21` (centres unmarked) [compound 5, 4-(Evodiamin-N13-yl)butyric acid], the solubility (physchem [1]) was 154 µg/mL (≈ 395 µM), the melting point was 234 °C (dec.) and the solubility (physchem [2]) was 60 µg/mL (≈ 154 µM).

For `CCCOC(=O)Cn1c2c(c3ccccc31)CCN1C(=O)c3ccccc3N(C)C21` (centres unmarked) [2-27, N13-(Propoxycarbonylmethyl)evodiamine], the solubility (physchem [1]) was 132 µg/mL (≈ 326 µM), the melting point was 168 to 170 °C and the solubility (physchem [2]) was 72.9 µg/mL (≈ 181 µM).

In the case of `CCC(=O)OCCn1c2c(c3ccccc31)CCN1C(=O)c3ccccc3N(C)C21` (centres unmarked) [2-21, N13-(2-Propionyloxyethyl)evodiamine], the solubility (physchem [1]) is reported as > 308 µg/mL, the melting point is reported as 205 to 206 °C and the solubility (physchem [2]) is reported as > 120 µg/mL.

`CN1c2ccccc2C(=O)N2CCc3c(n(CC=NO)c4ccccc34)C21` (centres unmarked) [6-1, 2-(Evodiamin-N13-yl)acetaldehyde oxime] gave a solubility (physchem [1]) of 167 µg/mL (≈ 463 µM) and a solubility (physchem [2]) of 60 µg/mL (≈ 166 µM).

In the case of `CON=CCn1c2c(c3ccccc31)CCN1C(=O)c3ccccc3N(C)C21` (centres unmarked) [6-2, 2-(Evodiamin-N13-yl)acetaldehyde O-methyl oxime], the solubility (physchem [1]) is reported as 160 µg/mL (≈ 428 µM), the melting point is reported as 216 °C (dec.) and the solubility (physchem [2]) is reported as 60 µg/mL (≈ 160 µM).

For `CC(=O)OCCCn1c2c(c3ccccc31)CCN1C(=O)c3ccccc3N(C)C21` (centres unmarked) [2-20, N13-(3-Acetoxypropyl)evodiamine], the solubility (physchem [1]) was 278 µg/mL (≈ 689 µM) and the solubility (physchem [2]) was > 120 µg/mL.

Compound `CCCCCn1c2c(c3ccccc31)CCN1C(=O)c3ccccc3N(C)C21` (centres unmarked) [2-3, N13-Pentylevodiamine] has a solubility (physchem [1]) of 322 µg/mL (≈ 862 µM), a melting point of 143 to 145 °C and a solubility (physchem [2]) of 60 to 120 µg/mL (≈ 161 to 321 µM).

With `CC(=O)OCCn1c2c(c3ccccc31)CCN1C(=O)c3ccccc3N(C)C21` (centres unmarked) [2-19, N13-(2-Acetoxyethyl)evodiamine] the solubility (physchem [1]) was 308 µg/mL (≈ 791 µM), the melting point was 211 to 213 °C and the solubility (physchem [2]) was > 120 µg/mL.

Compound `C=CCn1c2c(c3ccccc31)CCN1C(=O)c3ccccc3N(C)C21` (centres unmarked) [2-1, N13-Allylevodiamine] has a solubility (physchem [1]) of 175 µg/mL (≈ 510 µM), a melting point of 163 to 165 °C and a solubility (physchem [2]) of 60 µg/mL (≈ 175 µM).

With `CN1c2ccccc2C(=O)N2CCc3c(n(CCCCCCn4c5c(c6ccccc64)CCN4C(=O)c6ccccc6N(C)C54)c4ccccc34)C21` (centres unmarked) [3-2, N1,6-Bis-(evodiamin-N13-yl)hexane] the solubility (physchem [1]) was > 320 µg/mL, the melting point was 131 to 133 °C and the solubility (physchem [2]) was > 120 µg/mL.

Compound `CN1c2ccccc2C(=O)N2CCc3c(n(CCCCl)c4ccccc34)C21` (centres unmarked) [2-9, N13-(3-Chloropropyl)evodiamine] has a solubility (physchem [1]) of 322 µg/mL (≈ 848 µM), a melting point of 118 to 120 °C and a solubility (physchem [2]) of 60 to 120 µg/mL (≈ 158 to 316 µM).

`CN1c2ccccc2C(=O)N2CCc3c(n(CC4CO4)c4ccccc34)C21` (centres unmarked) [2-24, N13-((Oxiran-2-yl)methyl)evodiamine] gave a solubility (physchem [1]) of 55.7 µg/mL (≈ 155 µM), a melting point of 189 to 191 °C and a solubility (physchem [2]) of 20 µg/mL (≈ 55.6 µM).

Work on `CCCCOCCn1c2c(c3ccccc31)CCN1C(=O)c3ccccc3N(C)C21` (centres unmarked) [2-15, N13-(2-Butoxyethyl)evodiamine] yielded a solubility (physchem [1]) of 74.4 to 298 µg/mL (≈ 184 to 738 µM), a melting point of 68 to 70 °C and a solubility (physchem [2]) of 30 to 120 µg/mL (≈ 74.3 to 297 µM).

For `CN1c2ccccc2C(=O)N2CCc3c(n(CCCc4ccccc4)c4ccccc34)C21` (centres unmarked) [2-6, N13-(3-Phenylpropyl)evodiamine], the solubility (physchem [1]) was 142 µg/mL (≈ 338 µM), the melting point was 158 to 160 °C and the solubility (physchem [2]) was 60 µg/mL (≈ 142 µM).

In the case of `CN1c2ccccc2C(=O)N2CCc3c(n(CCCCCBr)c4ccccc34)C21` (centres unmarked) [2-26, N13-(5-Bromopentyl)evodiamine], the solubility (physchem [1]) is reported as 132 µg/mL (≈ 292 µM) and the solubility (physchem [2]) is reported as 67.8 µg/mL (≈ 150 µM).

For `CCOC(Cn1c2c(c3ccccc31)CCN1C(=O)c3ccccc3N(C)C21)OCC` (centres unmarked) [2-18, N13-(2,2-Diethoxyethyl)evodiamine], the solubility (physchem [1]) was 286 µg/mL (≈ 682 µM), the melting point was 117 to 119 °C and the solubility (physchem [2]) was > 120 µg/mL.

For `CN1c2ccccc2C(=O)N2CCc3c(n(CC(=O)c4ccccc4)c4ccccc34)C21` (centres unmarked) [2-13, N13-(Benzonylmethyl)evodiamine], the solubility (physchem [1]) was 73.7 to 147 µg/mL (≈ 175 to 349 µM), the melting point was 245 °C (dec.) and the solubility (physchem [2]) was 30 to 60 µg/mL (≈ 71.2 to 142 µM).

Compound `CN1c2ccccc2C(=O)N2CCc3c(n(CCCCCl)c4ccccc34)C21` (centres unmarked) [2-11, N13-(4-Chlorobutyl)evodiamine] has a solubility (physchem [1]) of 273 µg/mL (≈ 693 µM), a melting point of 127 to 129 °C and a solubility (physchem [2]) of 98 µg/mL (≈ 249 µM).

For `CN1c2ccccc2C(=O)N2CCc3c(n(CC=O)c4ccccc34)C21` (centres unmarked) [compound 6, 2-(Evodiamin-N13-yl)acetaldehyde], the solubility (physchem [1]) was 174 µg/mL (≈ 503 µM) and the solubility (physchem [2]) was 60 µg/mL (≈ 174 µM).

Compound `CN1c2ccccc2C(=O)N2CCc3c(n(CCCBr)c4ccccc34)C21` (centres unmarked) has a melting point of 130 to 132 °C.

With `CCCCn1c2c(c3ccccc31)CCN1C(=O)c3ccccc3N(C)C21` (centres unmarked) [2-2, N13-Butylevodiamine] the solubility (physchem [1]) was > 334 µg/mL, the melting point was 141 to 143 °C and the solubility (physchem [2]) was > 120 µg/mL.

In the case of `CN1c2ccccc2C(=O)N2CCc3c(n(CCCCCn4c5c(c6ccccc64)CCN4C(=O)c6ccccc6N(C)C54)c4ccccc34)C21` (centres unmarked) [3-1, 1,5-Bis-(evodiamin-N13-yl)pentane], the solubility (physchem [1]) is reported as > 350 µg/mL, the melting point is reported as 217 to 219 °C and the solubility (physchem [2]) is reported as > 120 µg/mL.

For `CCOC(=O)CCn1c2c(c3ccccc31)CCN1C(=O)c3ccccc3N(C)C21` (centres unmarked) [2-22, N13-(2-(Ethoxycarbonyl)ethyl)evodiamine], the solubility (physchem [1]) was 265 µg/mL (≈ 657 µM) and the solubility (physchem [2]) was > 120 µg/mL.

`COCCOCCn1c2c(c3ccccc31)CCN1C(=O)c3ccccc3N(C)C21` (centres unmarked) [2-17, N13-(2-(2-Methoxyethoxy)ethyl)evodiamine] showed a solubility (physchem [1]) of 148 µg/mL (≈ 365 µM), a melting point of 116 to 118 °C and a solubility (physchem [2]) of 60 µg/mL (≈ 148 µM).

For `CN1c2ccccc2C(=O)N2CCc3c(n(CCOCCOCCCl)c4ccccc34)C21` (centres unmarked), the melting point was 126 to 128 °C.

`CCOC(=O)CCCCn1c2c(c3ccccc31)CCN1C(=O)c3ccccc3N(C)C21` (centres unmarked) [2-28, N13-(4-(Ethoxycarbonyl)butyl)evodiamine] showed a solubility (physchem [1]) of 166 µg/mL (≈ 384 µM), a melting point of 251 to 253 °C and a solubility (physchem [2]) of 89.4 µg/mL (≈ 207 µM).
